Reference: patent US11021493B2, “1,4-thiazine dioxide and 1,2,4-thiadiazine dioxide derivatives as beta-secretase inhibitors and methods of use” (AMGEN INC., priority 2016, dated 2021)

Key:
[1] = molecular target: Cathepsin D (CatD) (Homo sapiens (Human), UniProt P07339); assay: In vitro enzymatic Cathepsin D (CatD) FRET assay; format: biochemical; details: read-out: Cat D Enzyme IC50
[2] = molecular target: T1, BACE1 (Homo sapiens (Human), UniProt P56817); assay: In vitro enzymatic BACE1 FRET assay; format: biochemical; details: read-out: BACE1 Enzyme IC50
Target sequence in this assay (P56817 46-501): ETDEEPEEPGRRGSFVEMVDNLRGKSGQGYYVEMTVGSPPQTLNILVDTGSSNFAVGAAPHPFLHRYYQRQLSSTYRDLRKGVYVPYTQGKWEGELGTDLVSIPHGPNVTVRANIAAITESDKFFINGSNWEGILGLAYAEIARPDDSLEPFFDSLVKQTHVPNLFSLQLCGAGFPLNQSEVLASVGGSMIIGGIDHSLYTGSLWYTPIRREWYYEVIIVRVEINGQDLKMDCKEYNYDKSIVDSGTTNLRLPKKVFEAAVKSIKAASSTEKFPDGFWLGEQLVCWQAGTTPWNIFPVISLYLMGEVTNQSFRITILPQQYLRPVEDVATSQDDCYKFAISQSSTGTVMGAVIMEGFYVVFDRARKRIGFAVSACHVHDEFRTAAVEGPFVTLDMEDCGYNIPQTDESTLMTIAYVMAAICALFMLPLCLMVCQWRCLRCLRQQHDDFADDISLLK

[3] = molecular target: T1, BACE1; assay: In vitro BACE1 cell-based assay (Aβ40 in conditioned medium of cells stably expressing APP, HTRF); details: Aβ40 in conditioned media after 24 h incubation
Target sequence in this assay (P56817 46-501, species assumed): as the sequence (P56817 46-501) above

[4] = molecular target: human recombinant BACE2 (Homo sapiens (Human), UniProt Q9Y5Z0); assay: In vitro enzymatic BACE2 FRET assay; format: biochemical; details: read-out: BACE2 Enzyme IC50
Chain of human recombinant BACE2 (Q9Y5Z0 63-518): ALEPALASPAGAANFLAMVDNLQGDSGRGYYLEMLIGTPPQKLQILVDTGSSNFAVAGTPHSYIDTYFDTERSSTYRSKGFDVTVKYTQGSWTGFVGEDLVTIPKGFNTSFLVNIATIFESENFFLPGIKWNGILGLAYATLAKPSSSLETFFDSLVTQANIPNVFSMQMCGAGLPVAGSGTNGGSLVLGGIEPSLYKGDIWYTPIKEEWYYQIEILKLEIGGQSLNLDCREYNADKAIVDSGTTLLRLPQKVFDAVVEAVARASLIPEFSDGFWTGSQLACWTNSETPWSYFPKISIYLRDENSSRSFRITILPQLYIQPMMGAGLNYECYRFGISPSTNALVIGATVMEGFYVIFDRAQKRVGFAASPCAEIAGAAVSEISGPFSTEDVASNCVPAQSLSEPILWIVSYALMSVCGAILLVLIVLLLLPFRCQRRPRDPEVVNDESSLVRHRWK

Chain of Cathepsin D (CatD) (P07339 65-412, species assumed): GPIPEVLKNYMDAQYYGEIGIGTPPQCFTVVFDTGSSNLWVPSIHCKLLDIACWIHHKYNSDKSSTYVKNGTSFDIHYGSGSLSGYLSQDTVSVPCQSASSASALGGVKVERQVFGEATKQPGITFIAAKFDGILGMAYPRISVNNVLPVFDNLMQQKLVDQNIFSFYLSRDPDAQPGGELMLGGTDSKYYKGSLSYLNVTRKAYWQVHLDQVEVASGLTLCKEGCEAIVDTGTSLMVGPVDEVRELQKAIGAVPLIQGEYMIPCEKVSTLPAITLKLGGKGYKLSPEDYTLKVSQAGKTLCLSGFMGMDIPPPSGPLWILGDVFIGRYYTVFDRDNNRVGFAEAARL

| Structure (SMILES) | IC50 [1] | IC50 [2] | IC50 [3] | IC50 [4] |
| --- | --- | --- | --- | --- |
| CN1C(N)=N[C@](C)(c2cc(/C=C(\F)c3ccc(F)cn3)ccc2F)CS1(=O)=O [Example 240, (5R)-5-(2-fluoro-5-((Z)-2-fluoro-2-(5-fluoro-2-pyridinyl)ethenyl)phenyl)-2,5-dimethyl-5,6-dihydro-2H-1,2,4-thiadiazin-3-amine 1,1-dioxide] | 375000 nM | 34 nM | 67 nM | 8 nM |
| COc1cnc(/C(F)=C/c2ccc(F)c([C@]3(C)CS(=O)(=O)N(C)C(N)=N3)c2)cn1 [Example 241, (5R)-5-(2-fluoro-5-((Z)-2-fluoro-2-(5-methoxy-2-pyrazinyl)ethenyl)phenyl)-2,5-dimethyl-5,6-dihydro-2H-1,2,4-thiadiazin-3-amine 1,1-dioxide] | 91300 nM | 107 nM | 168 nM | 75 nM |
| CN1C(N)=N[C@](C)(c2cc(/C=C(\F)c3ncc(C(F)(F)F)cc3Cl)ccc2F)CS1(=O)=O [Example 242, (5R)-5-(5-((Z)-2-(3-chloro-5-(trifluoromethyl)-2-pyridinyl)-2-fluoroethenyl)-2-fluorophenyl)-2,5-dimethyl-5,6-dihydro-2H-1,2,4-thiadiazin-3-amine 1,1-dioxide] | 99900 nM | 5 nM | 26 nM | 10 nM |
| CN1C(N)=N[C@](C)(c2cc(/C=C(\F)c3ccc(C(F)(F)F)cn3)ccc2F)CS1(=O)=O [Example 244, (5R)-5-(2-fluoro-5-((Z)-2-fluoro-2-(5-(trifluoromethyl)-2-pyridinyl)ethenyl)phenyl)-2,5-dimethyl-5,6-dihydro-2H-1,2,4-thiadiazin-3-amine 1,1-dioxide] | 206000 nM | 6 nM | 8 nM | 31 nM |
| Cc1cc(C#N)cnc1/C(F)=C/c1ccc(F)c([C@]2(C)CS(=O)(=O)N(C)C(N)=N2)c1 [Example 245, 6-((Z)-2-(3-((5R)-3-amino-2,5-dimethyl-1,1-dioxido-5,6-dihydro-2H-1,2,4-thiadiazin-5-yl)-4-fluorophenyl)-1-fluoroethenyl)-5-methyl-3-pyridinecarbonitrile] | 137000 nM | 5 nM | 4 nM | 21 nM |
| CN1C(N)=N[C@](C)(c2cc(/C=C(\F)c3ccc(Br)cn3)ccc2F)CS1(=O)=O [Example 247, (R,Z)-3-amino-5-(5-(2-(5-bromopyridin-2-yl)-2-fluorovinyl)-2-fluorophenyl)-2,5-dimethyl-5,6-dihydro-2H-1,2,4-thiadiazine 1,1-dioxide] | 11000 nM | 6 nM | 28 nM | 7 nM |
| CN1C(N)=N[C@](C)(c2cc(/C=C(\F)c3cnc(C#CC4CC4)cn3)ccc2F)CS1(=O)=O [Example 248, (R,Z)-3-amino-5-(5-(2-(5-(cyclopropylethynyl)pyrazin-2-yl)-2-fluorovinyl)-2-fluorophenyl)-2,5-dimethyl-5,6-dihydro-2H-1,2,4-thiadiazine 1,1-dioxide] | 12700 nM | 3 nM | 13 nM | 16 nM |
| CN1C(N)=N[C@](C)(c2cc(/C=C(\F)c3ccc(C#CC4CC4)cn3)ccc2F)CS1(=O)=O [Example 251, (R,Z)-3-amino-5-(5-(2-(5-(cyclopropylethynyl)pyridin-2-yl)-2-fluorovinyl)-2-fluorophenyl)-2,5-dimethyl-5,6-dihydro-2H-1,2,4-thiadiazine 1,1-dioxide] | 33800 nM | 7 nM | 110 nM | 36 nM |
| CN1C(N)=N[C@](C)(c2cc(/C=C(\F)c3cnc(OCC#CCF)cn3)ccc2F)CS1(=O)=O [Example 254, (R,Z)-3-amino-5-(2-fluoro-5-(2-fluoro-2-(5-((4-fluorobut-2-yn-1-yl)oxy)pyrazin-2-yl)vinyl)phenyl)-2,5-dimethyl-5,6-dihydro-2H-1,2,4-thiadiazine 1,1-dioxide] | 28300 nM | 7 nM | 21 nM | 52 nM |
| CN1C(N)=N[C@](C)(c2cc(/C=C(\F)c3ccc4c(n3)OCCO4)ccc2F)CS1(=O)=O [Example 255, (5R)-5-(5-((Z)-2-(2,3-dihydro[1,4]dioxino[2,3-b]pyridin-6-yl)-2-fluoroethenyl)-2-fluorophenyl)-2,5-dimethyl-5,6-dihydro-2H-1,2,4-thiadiazin-3-amine 1,1-dioxide] | 122000 nM | 3840 nM | 3020 nM | 458 nM |
| CN1C(N)=N[C@](C)(c2cc(/C=C(\F)c3ccc(C#N)s3)ccc2F)CS1(=O)=O [Example 256, 5-((Z)-2-(3-((5R)-3-amino-2,5-dimethyl-1,1-dioxido-5,6-dihydro-2H-1,2,4-thiadiazin-5-yl)-4-fluorophenyl)-1-fluoroethenyl)-2-thiophenecarbonitrile] | 15400 nM | 35 nM | 99 nM | 14 nM |
| CN1C(N)=N[C@](C)(c2cc(/C=C(\F)c3cc4c(cn3)OCO4)ccc2F)CS1(=O)=O [Example 257, (5R)-5-(5-((Z)-2-([1,3]dioxolo[4,5-c]pyridin-6-yl)-2-fluoroethenyl)-2-fluorophenyl)-2,5-dimethyl-5,6-dihydro-2H-1,2,4-thiadiazin-3-amine 1,1-dioxide] | 237000 nM | 207 nM | 102 nM | 235 nM |
| CN1C(N)=N[C@](C)(c2cc(/C=C(\F)c3ccc(OC(F)(F)F)cn3)ccc2F)CS1(=O)=O [Example 258, (R,Z)-3-amino-5-(2-fluoro-5-(2-fluoro-2-(5-(trifluoromethoxy)pyridin-2-yl)vinyl)phenyl)-2,5-dimethyl-5,6-dihydro-2H-1,2,4-thiadiazine 1,1-dioxide] | 54400 nM | 6 nM | 33 nM | 40 nM |
| CN1C(N)=N[C@](C)(c2cc(/C=C(\F)c3cc4ccccc4cn3)ccc2F)CS1(=O)=O [Example 259, (5R)-5-(2-fluoro-5-((Z)-2-fluoro-2-(3-isoquinolinyl)ethenyl)phenyl)-2,5-dimethyl-5,6-dihydro-2H-1,2,4-thiadiazin-3-amine 1,1-dioxide] | 116000 nM | 272 nM | 1120 nM | 41 nM |
| CN1C(N)=N[C@](C)(c2cc(/C=C(\F)c3cc4cc(Cl)ccc4cn3)ccc2F)CS1(=O)=O [Example 260, (5R)-5-(5-((Z)-2-(6-chloro-3-isoquinolinyl)-2-fluoroethenyl)-2-fluorophenyl)-2,5-dimethyl-5,6-dihydro-2H-1,2,4-thiadiazin-3-amine 1,1-dioxide] | 72500 nM | 552 nM | 4180 nM | 112 nM |
| CC1(C)C(N)=N[C@](C)(c2cc(/C=C(\F)c3ccc(F)cn3)ccc2F)CS1(=O)=O [Example 262, (R,Z)-5-amino-3-(2-fluoro-5-(2-fluoro-2-(5-fluoropyridin-2-yl)vinyl)phenyl)-3,6,6-trimethyl-3,6-dihydro-2H-1,4-thiazine 1,1-dioxide] | 108000 nM | 47 nM | 180 nM | 11 nM |
| COc1cnc(/C(F)=C/c2ccc(F)c([C@]3(C)CS(=O)(=O)C(C)(C)C(N)=N3)c2)cn1 [Example 263, (R,Z)-5-amino-3-(2-fluoro-5-(2-fluoro-2-(5-methoxypyrazin-2-yl)vinyl)phenyl)-3,6,6-trimethyl-3,6-dihydro-2H-1,4-thiazine 1,1-dioxide] | 237000 nM | 189 nM | 133 nM | 190 nM |
| CC1(C)C(N)=N[C@](C)(c2cc(/C=C(\F)c3ncc(C(F)(F)F)cc3Cl)ccc2F)CS1(=O)=O [Example 264, (R,Z)-5-amino-3-(5-(2-(3-chloro-5-(trifluoromethyl)pyridin-2-yl)-2-fluorovinyl)-2-fluorophenyl)-3,6,6-trimethyl-3,6-dihydro-2H-1,4-thiazine 1,1-dioxide] | 117000 nM | 10 nM | 75 nM | 38 nM |
| CC1(C)C(N)=N[C@](C)(c2cc(/C=C(\F)c3ccc(C(F)(F)F)cn3)ccc2F)CS1(=O)=O [Example 265, (R,Z)-5-amino-3-(2-fluoro-5-(2-fluoro-2-(5-(trifluoromethyl)pyridin-2-yl)vinyl)phenyl)-3,6,6-trimethyl-3,6-dihydro-2H-1,4-thiazine 1,1-dioxide] | 89400 nM | 8 nM | 10 nM | 43 nM |
| CN1C(N)=N[C@](C)(c2cc(/C=C(\F)c3cnc(C4CC4)cn3)ccc2F)CS1(=O)=O [Example 266, (R,Z)-3-amino-5-(5-(2-(5-cyclopropylpyrazin-2-yl)-2-fluorovinyl)-2-fluorophenyl)-2,5-dimethyl-5,6-dihydro-2H-1,2,4-thiadiazine 1,1-dioxide] | 69800 nM | 750 nM | 653 nM | 78 nM |
| CN1C(N)=N[C@](C)(c2cc(/C=C(\F)c3nc(C#N)cs3)ccc2F)CS1(=O)=O [Example 267, 2-((Z)-2-(3-((5R)-3-amino-2,5-dimethyl-1,1-dioxido-5,6-dihydro-2H-1,2,4-thiadiazin-5-yl)-4-fluorophenyl)-1-fluoroethenyl)-1,3-thiazole-4-carbonitrile] | 57500 nM | 26 nM | 38 nM | 6 nM |
| CC1(C)C(N)=N[C@](C)(c2cc(/C=C(\F)c3ncc(C#N)cc3Cl)ccc2F)CS1(=O)=O [Example 268, (R,Z)-6-(2-(3-(5-amino-3,6,6-trimethyl-1,1-dioxido-3,6-dihydro-2H-1,4-thiazin-3-yl)-4-fluorophenyl)-1-fluorovinyl)-5-chloronicotinonitrile] | 136000 nM | 7 nM | 35 nM | 12 nM |
